# Test results from patent publication US20110091375A1, “USE OF THE COMBINATION COMPRISING TEMOZOLOMIDE AND TNF-ALPHA FOR TREATING GLIOBLASTOMA” (THE UNIVERSITY OF CHICAGO, priority 2004, published 2011).
# Where a SMILES comes first, the peptide text is derived from it. The star is where a group is joined. Cbz = O=C(OCc1ccccc1)*; CH2F = FC*
# Assays:
# Format in all cases: cell-based, human
# U87 cells [1] = test: Flow cytometric analysis of apoptosis (fractional DNA content, annexin V binding)
# Method: Fractional DNA content: U87 cells (10^5) were plated overnight at 37° C. with 5% CO2. The cells were then treated with TNFα (10 ng/mL) and/or TMZ (100 μM). At 72 h the cells were washed in PBS and fixed in ice-cold 70% (v/v) ethanol. The cells were washed twice and incubated in RNase (1 mg/mL) for 30 m at 37° C., then incubated in propidium iodide (PI) solution (100 ug/mL) for […] at 4° C. Flow cytometric analysis was performed on a FACSort instrument (Becton Dickinson Immunocytometry Systems, San Jose, Calif.), and the data were analyzed using the CellQuest software (Becton Dickinson).
# Annexin V binding (van Engeland, M. et al. (1998) Cytometry 31(1):1-9): At 72 h cells were washed in PBS and incubated in the dark for 15 m with binding buffer containing 5 μl of Annexin V-FITC and 5 μl of PI (Annexin V-FITC apoptosis detection kit II). The data was analyzed by Flowjo analysis software (Tree Star Inc., Ashland, Oreg.).
# Cells were either un-transfected or co-transfected with pRC-CMV-p65 or pRC-CMV in the presence of a GFP plasmid at a ratio of 4:1. Under these conditions, cells expressing GFP also expressed the co-transfected plasmid (Tang, F. et al. (2002) Mol Cell Biol 22:8571-8579). Cells were then left untreated or treated as described in the figure legends. At 72 h cells were washed in PBS and incubated in the dark for 15 m with binding buffer containing 5 μl of Annexin V-FITC and 5 μl of Propidium iodide (PI). In transfected cells, annexin V binding was assessed in GFP positive cells. Data was analyzed by Flowjo analysis software (Tree Star Inc., Ashland, Oreg., USA) as described in U.S. Provisional Application No. 60/604,251 (Yamini, B. et al. (2004) Cancer Res 64:6381-6384).
# JNK = JNK phosphorylation (activation), Western blot
# Method: (§1) 20 μg of whole U87 cell (or nuclear) lysate was subjected to sodium dodecyl sulfate (SDS)-polyacrylamide gel electrophoresis (PAGE). Following electro-transfer, Immobilon-P membranes (Millipore Corp. Burlington, Mass., USA.) were probed with primary polyclonal antibody against IκBα, phospho-Ser32-IκBα, SAPK/JNK, phospho-Thr183/Tyr185-SAPK/JNK, p65, phospho-Ser536-p65 (Cell Signaling Technology Inc. Beverly, […]., USA) diluted 1:1000 overnight at 4° C. Anti-rabbit IgG HRP-linked secondary antibody (Cell Signaling Technology) was diluted 1:1000 in blocking buffer and applied for 1 h at room temperature. Immunoreactive bands were detected by SuperSignal enhanced chemiluminescence (ECL) (Pierce, Rockford, Ill., USA) and exposed to Kodak X-Omat film.
# U87 cells [2] = test: Measurement of superoxide production (hydroethidine oxidation); conditions: P<0.05 vs TNFα+TMZ
# Method: U87 cells were plated at a density of 10^6 cells in flat-bottom 6-well tissue culture plates, incubated overnight and treated as indicated in the figure legend. Cells were then washed, resuspended in PBS and 1 μL of 10 mM hydroethidine (HE) per mL cell suspension (10 μM final concentration) was added and incubated for 5 m at 37° C. Cells were harvested and analyzed on a flow cytometer (FACSort; BD Biosciences) with excitation at 488 nm and emission collected using a 620-670 nm […] long-pass filter. Data was analyzed by Flowjo software.
# U87 cells [3] = test: U87 cell viability (Trypan Blue dye exclusion, MTS)
# Method: Trypan Blue dye exclusion method was employed. 10^4 U87 cells were plated and incubated at 37° C. overnight. Subsequently, the cells were contacted with media containing TNFα (10 ng/mL) and/or TMZ (100 μM), incubated for 3 h, and washed. […] All of the studies were performed in triplicate.
# IκBα = test: TNFα-induced IκBα degradation and phosphorylation (Western blot / kinase assay); conditions: at 15 m, TNFα with or without TMZ pretreatment
# Method: Cells were then washed with 10 mL ice-cold PBS, scraped from the dish, and pelleted by centrifugation at 1000 rpm for 5 m at 4° C. Cell pellets were resuspended in 400 μl of ice-cold buffer A (10 mM HEPES, pH 7.9; 10 mM KCl; 0.1 mM EDTA; 1 mM DTT; 0.5 mM phenylmethysulfonylfluoride [PMSF]; 1 μg/mL leupeptin; 5 μg/mL aprotinin) and allowed to swell on ice for 15 m. Following the addition of 25 μl of 10% NP-40, the suspension was vortexed for 10 s and centrifuged at 14,500 rpm for 1 m at 4° C. Nuclei were resuspended in 50 μl of ice-cold buffer B (20 mM HEPES, pH 7.9; […]; 1 mM EDTA; 1 mM DTT; 1 mM PMSF; 25% glycerol; 1 μg/mL leupeptin; 5 μg/mL aprotinin) and incubated on ice for 15 m. The nuclear suspension was then centrifuged at 14,500 rpm for 5 m at 4° C. and the supernatant containing the nuclear proteins was transferred to a clean tube. Protein concentrations for each sample were determined by the Bradford method (Bio-Rad, Richmond, Calif., USA) and were adjusted to 2 μg/μl by the addition of buffer B.
# as §1
# IκK was immunoprecipitated from treated U87 cell extracts with anti-IKKβ antibody, (Santa Cruz Biotechnology, Santa Cruz, Calif., USA). […] Kinase activity was quantified using a Phosphoimager and Equal protein loading determined by immunoblotting with anti-IκKβ antibody (Upstate USA, Charlottesville, Va., USA). […]
# [4] = pretreatment before TMZ and TNFα
molecule,measurement,setting,value
"CC(=O)N[C@@H](CS)C(=O)O [NAC, N-acetylcystein]","effect on cell death, pretreatment alone",U87 cells [1]; U87,minimal effects
same,"apoptosis induced by combination TMZ and TNFα, inhibitor pretreatment","U87 cells [1]; annexin V binding, U87, P<0.01 vs TNFα+TMZ",significantly reversed
same,reduction of delayed JNK activation induced by combination TMZ and TNFα,"JNK; U87, NAC pretreatment",1.7 fold
same,"transient JNK activation, NAC pretreatment","JNK; U87, TMZ and TNFα",without affecting
same,"increase in O2^.− induced by TMZ and TNFα, NAC pretreatment",U87 cells [2],significantly inhibited
COC(=O)C[C@H](NC(=O)[C@H](C)NC(=O)[C@@H](NC(=O)OCc1ccccc1)C(C)C)C(=O)CF [zVAD] (Cbz-Val-Ala-Asp(OMe)-CH2F),"cytotoxicity induced by combined treatment with TMZ and TNFα, inhibitor pretreatment",U87 cells [3]; [4],completely reversed
same,"JNK activation induced by TMZ and TNFα, inhibitor pretreatment",JNK; [4],did not inhibit
TNFα,U87 cell apoptosis (sub-G1 hypodiploid/apoptotic peak),"U87 cells [1]; fractional DNA content, 72 h, TNFα 10 ng/mL and/or TMZ 100 μM",minimal effect
same,effect on U87 cell viability,U87 cells [3]; 10 ng/mL TNFα and/or 100 μM TMZ,Minimal effects
same,JNK phosphorylation (activation),JNK; glioma cells,transiently increased
same,degradation of IκBα,IκBα,complete degradation
